Data reported in PMC12566511, “The Evaluation of (1R,4R,7R,10R)-α,α′,α″,α‴-Tetramethyl-1,4,7,10-tetraazacyclododecane-1,4,7,10-tetraacetic Acid (DOTMA) as a Chelator for Zirconium-89” (Molecules, 2025).

Assay: Biodistribution studies in non-tumor-bearing, normal mice
Type: in vivo, female NIH Swiss mice
Settings: for Biodistribution (%ID/g) Heart / Biodistribution (%ID/g) Kidney / Biodistribution (%ID/g) Large intestine / Biodistribution (%ID/g) Liver / Biodistribution (%ID/g) Lung / Biodistribution (%ID/g) Muscle / Biodistribution (%ID/g) Pancreas / Biodistribution (%ID/g) Small intestine / Biodistribution (%ID/g) Spleen / Biodistribution (%ID/g) Stomach / Biodistribution (%ID/g) Blood / Biodistribution (%ID/g) Bone / Biodistribution (%ID/g) Fat: tail vein, n = 6
Description: Female NIH Swiss mice (6–8 weeks old) were purchased from Inotiv, Lafayette, IN, USA. All animals were acclimated to a 12 h light/dark cycle and received food and water ad libitum for 5 days before any manipulations were performed. All animals were checked by veterinary staff daily to ensure well-being and proper environment and to monitor for signs of distress. Clinical signs of distress in laboratory rodents include decreased activity, pilo-erection, un-groomed appearance, excessive licking and scratching, self-mutilation, abnormal stance, hunched appearance, rapid or shallow respiration, grunting, dilated pupils, aggressiveness towards handler, high-pitched vocalizations, change in feeding activity, and attempts to separate from group. In the event of clinical distress, animals were euthanized after consulting the on-call veterinarian. To minimize suffering during the tail vain injection, animals were kept under deep isoflurane anesthesia. At the end point of the study, animals were anesthetized with isoflurane and were euthanized by cervical dislocation, which is consistent with the recommendations of the American Veterinary Medical Association Guidelines on Euthanasia.
Biodistribution studies were conducted using a modified literature procedure. Briefly, female NIH Swiss mice (6–8 weeks old, n = 6/cohort; 30 animals total) were injected with [^89Zr]Zr-DOTMA (0.55 MBq (15 μCi)/mouse) via the tail vein and sacrificed at 2, 4, 24, 48, and 72 h p.i. Organs and tissues of interest were excised, weighed, and counted on a gamma counter. The percent injected dose per gram (%ID/g) was calculated by comparison to a weighed, counted standard for each group.

## CC(C(=O)[O-])N1CCN(C(C)C(=O)[O-])CCN(C(C)C(=O)[O-])CCN(C(C)C(=O)[O-])CC1.[89Zr+4] (stereo not shown) [[^89Zr]Zr-DOTMA]
4 h p.i.
  Biodistribution (%ID/g) Heart: 0.019 ± 0.004 %ID/g
  Biodistribution (%ID/g) Kidney: 0.689 ± 0.086 %ID/g
  Biodistribution (%ID/g) Large intestine: 0.632 ± 0.088 %ID/g
  Biodistribution (%ID/g) Liver: 0.123 ± 0.017 %ID/g
  Biodistribution (%ID/g) Lung: 0.060 ± 0.005 %ID/g
  Biodistribution (%ID/g) Muscle: 0.004 ± 0.002 %ID/g
  Biodistribution (%ID/g) Pancreas: 0.010 ± 0.004 %ID/g
  Biodistribution (%ID/g) Small intestine: 0.080 ± 0.007 %ID/g
  Biodistribution (%ID/g) Spleen: 0.076 ± 0.004 %ID/g
  Biodistribution (%ID/g) Stomach: 0.013 ± 0.005 %ID/g
24 h p.i.
  Biodistribution (%ID/g) Blood: 0.005 ± 0.001 %ID/g
  Biodistribution (%ID/g) Bone: 0.026 ± 0.004 %ID/g
  Biodistribution (%ID/g) Fat: 0.005 ± 0.002 %ID/g
  Biodistribution (%ID/g) Heart: 0.009 ± 0.002 %ID/g
  Biodistribution (%ID/g) Kidney: 0.077 ± 0.009 %ID/g
  Biodistribution (%ID/g) Large intestine: 0.022 ± 0.008 %ID/g
  Biodistribution (%ID/g) Liver: 0.018 ± 0.002 %ID/g
  Biodistribution (%ID/g) Lung: 0.033 ± 0.004 %ID/g
  Biodistribution (%ID/g) Muscle: 0.001 ± 0.000 %ID/g
  Biodistribution (%ID/g) Pancreas: 0.003 ± 0.001 %ID/g
  Biodistribution (%ID/g) Small intestine: 0.007 ± 0.001 %ID/g
  Biodistribution (%ID/g) Spleen: 0.044 ± 0.005 %ID/g
  Biodistribution (%ID/g) Stomach: 0.005 ± 0.002 %ID/g
48 h p.i.
  Biodistribution (%ID/g) Blood: 0.004 ± 0.001 %ID/g
  Biodistribution (%ID/g) Bone: 0.023 ± 0.004 %ID/g
  Biodistribution (%ID/g) Fat: 0.002 ± 0.001 %ID/g
  Biodistribution (%ID/g) Heart: 0.004 ± 0.002 %ID/g
  Biodistribution (%ID/g) Kidney: 0.021 ± 0.003 %ID/g
  Biodistribution (%ID/g) Large intestine: 0.003 ± 0.001 %ID/g
  Biodistribution (%ID/g) Liver: 0.008 ± 0.001 %ID/g
  Biodistribution (%ID/g) Lung: 0.015 ± 0.002 %ID/g
  Biodistribution (%ID/g) Muscle: 0.001 ± 0.001 %ID/g
  Biodistribution (%ID/g) Pancreas: 0.001 ± 0.001 %ID/g
  Biodistribution (%ID/g) Small intestine: 0.002 ± 0.000 %ID/g
  Biodistribution (%ID/g) Spleen: 0.024 ± 0.005 %ID/g
  Biodistribution (%ID/g) Stomach: 0.001 ± 0.000 %ID/g
72 h p.i.
  fold less radioactivity associated with liver tissue compared to [^89Zr]Zr-DFO: 9 fold
  fold less radioactivity in the bone tissue than [^89Zr]Zr-DFO: 3 fold
  fold less radioactivity retained in the kidney than [^89Zr]Zr-DFO: 69 fold
  Biodistribution (%ID/g) Blood: 0.003 ± 0.001 %ID/g
  Biodistribution (%ID/g) Bone: 0.023 ± 0.003 %ID/g
  Biodistribution (%ID/g) Fat: 0.001 ± 0.001 %ID/g
  Biodistribution (%ID/g) Heart: 0.004 ± 0.001 %ID/g
  Biodistribution (%ID/g) Kidney: 0.010 ± 0.002 %ID/g
  Biodistribution (%ID/g) Large intestine: 0.003 ± 0.001 %ID/g
  Biodistribution (%ID/g) Liver: 0.007 ± 0.001 %ID/g
  Biodistribution (%ID/g) Lung: 0.013 ± 0.003 %ID/g
  Biodistribution (%ID/g) Muscle: 0.001 ± 0.001 %ID/g
  Biodistribution (%ID/g) Pancreas: 0.001 ± 0.001 %ID/g
  Biodistribution (%ID/g) Small intestine: 0.001 ± 0.000 %ID/g
  Biodistribution (%ID/g) Spleen: 0.026 ± 0.002 %ID/g
  Biodistribution (%ID/g) Stomach: 0.001 ± 0.000 %ID/g
